Where “and” joins values, the source holds several entries; their conditions need not be identical. Equal values may be shown once.
Settings: Liquid; for mass density: vibrating tube

C1CCCC1 [cyclopentane]
Settings | mass density [kg/m3] | viscosity
257.86 K, 100 kPa | – | 0.6878 mPa·s
257.87 K, 100 kPa | – | 0.6871 mPa·s
258.01 K, 100 kPa | – | 0.6851 mPa·s
262.93 K, 100 kPa | – | 0.6393 mPa·s and 0.6392 mPa·s
262.93 K, 3100 kPa | – | 0.6574 mPa·s
262.93 K, 5600 kPa | – | 0.6719 mPa·s
262.93 K, 7900 kPa | – | 0.6858 mPa·s
262.93 K, 10100 kPa | – | 0.6987 mPa·s
262.93 K, 25800 kPa | – | 0.795 mPa·s
262.93 K, 50800 kPa | – | 0.9583 mPa·s
262.93 K, 75700 kPa | – | 1.137 mPa·s
262.93 K, 100700 kPa | – | 1.333 mPa·s
262.93 K, 125800 kPa | – | 1.546 mPa·s
262.93 K, 150800 kPa | – | 1.782 mPa·s
262.93 K, 175800 kPa | – | 2.04 mPa·s
262.93 K, 200800 kPa | – | 2.322 mPa·s
262.93 K, 225900 kPa | – | 2.629 mPa·s
262.93 K, 250900 kPa | – | 2.967 mPa·s
262.93 K, 275800 kPa | – | 3.333 mPa·s
262.93 K, 300600 kPa | – | 3.725 mPa·s
262.99 K, 100 kPa | – | 0.6384 mPa·s and 0.6388 mPa·s
262.99 K, 3100 kPa | – | 0.6562 mPa·s
262.99 K, 5600 kPa | – | 0.6709 mPa·s
262.99 K, 8100 kPa | – | 0.6858 mPa·s
262.99 K, 10800 kPa | – | 0.7025 mPa·s
262.99 K, 25800 kPa | – | 0.7943 mPa·s
262.99 K, 50800 kPa | – | 0.9576 mPa·s
262.99 K, 75700 kPa | – | 1.136 mPa·s
262.99 K, 100500 kPa | – | 1.33 mPa·s
262.99 K, 125500 kPa | – | 1.543 mPa·s
262.99 K, 150500 kPa | – | 1.778 mPa·s
262.99 K, 175500 kPa | – | 2.032 mPa·s
262.99 K, 200200 kPa | – | 2.307 mPa·s
263.03 K, 100 kPa | – | 0.6386 mPa·s and 0.639 mPa·s
263.03 K, 10600 kPa | – | 0.7005 mPa·s
263.03 K, 20600 kPa | – | 0.7608 mPa·s
263.03 K, 30600 kPa | – | 0.8231 mPa·s
263.03 K, 40500 kPa | – | 0.8873 mPa·s
263.03 K, 50500 kPa | – | 0.9555 mPa·s
263.03 K, 60500 kPa | – | 1.024 mPa·s
263.03 K, 70500 kPa | – | 1.095 mPa·s
263.03 K, 80600 kPa | – | 1.171 mPa·s
263.03 K, 90400 kPa | – | 1.246 mPa·s
263.03 K, 100400 kPa | – | 1.327 mPa·s
263.03 K, 110500 kPa | – | 1.41 mPa·s
263.03 K, 120500 kPa | – | 1.496 mPa·s
263.03 K, 130500 kPa | – | 1.585 mPa·s
263.03 K, 140400 kPa | – | 1.677 mPa·s
263.03 K, 150400 kPa | – | 1.774 mPa·s
263.03 K, 160500 kPa | – | 1.874 mPa·s
263.03 K, 170500 kPa | – | 1.977 mPa·s
263.03 K, 180400 kPa | – | 2.083 mPa·s
263.03 K, 190300 kPa | – | 2.193 mPa·s
263.03 K, 200200 kPa | – | 2.27 mPa·s
268.01 K, 100 kPa | – | 0.6016 mPa·s and 0.5994 mPa·s
268.01 K, 3000 kPa | – | 0.6145 mPa·s
268.01 K, 5500 kPa | – | 0.6285 mPa·s
268.01 K, 8100 kPa | – | 0.6428 mPa·s
268.01 K, 10600 kPa | – | 0.6569 mPa·s
268.01 K, 25900 kPa | – | 0.745 mPa·s
268.01 K, 50900 kPa | – | 0.8969 mPa·s
268.01 K, 75900 kPa | – | 1.065 mPa·s
268.01 K, 100700 kPa | – | 1.243 mPa·s
268.01 K, 125700 kPa | – | 1.44 mPa·s
268.01 K, 150600 kPa | – | 1.657 mPa·s
268.01 K, 175700 kPa | – | 1.896 mPa·s
268.01 K, 200700 kPa | – | 2.151 mPa·s
268.01 K, 225600 kPa | – | 2.432 mPa·s
268.01 K, 250800 kPa | – | 2.742 mPa·s
268.01 K, 275300 kPa | – | 3.073 mPa·s
268.01 K, 301000 kPa | – | 3.447 mPa·s
268.01 K, 325300 kPa | – | 3.833 mPa·s
268.01 K, 351200 kPa | – | 4.283 mPa·s
268.01 K, 378000 kPa | – | 4.766 mPa·s
273.15 K, 100 kPa | – | 0.5601 mPa·s and 0.561 mPa·s
273.15 K, 3100 kPa | – | 0.5756 mPa·s
273.15 K, 5600 kPa | – | 0.5886 mPa·s
273.15 K, 8100 kPa | – | 0.6022 mPa·s
273.15 K, 10600 kPa | – | 0.6155 mPa·s
273.15 K, 25900 kPa | – | 0.6979 mPa·s
273.15 K, 50800 kPa | – | 0.8418 mPa·s
273.15 K, 75800 kPa | – | 0.9972 mPa·s
273.15 K, 100700 kPa | – | 1.166 mPa·s
273.15 K, 125500 kPa | – | 1.349 mPa·s
273.15 K, 150500 kPa | – | 1.55 mPa·s
273.15 K, 175500 kPa | – | 1.769 mPa·s
273.15 K, 200500 kPa | – | 2.006 mPa·s
273.15 K, 225300 kPa | – | 2.266 mPa·s
273.15 K, 250600 kPa | – | 2.552 mPa·s
273.15 K, 275800 kPa | – | 2.864 mPa·s
273.15 K, 300700 kPa | – | 3.198 mPa·s
273.15 K, 325900 kPa | – | 3.56 mPa·s
273.15 K, 350700 kPa | – | 3.947 mPa·s
273.15 K, 379200 kPa | – | 4.44 mPa·s
278.15 K, 101.33 kPa | 759.64 | –
278.16 K, 100 kPa | – | 0.5288 mPa·s and 0.529 mPa·s
278.16 K, 2900 kPa | – | 0.543 mPa·s
278.16 K, 5000 kPa | – | 0.5539 mPa·s
278.16 K, 8100 kPa | – | 0.5697 mPa·s
278.16 K, 10800 kPa | – | 0.5838 mPa·s
278.16 K, 25900 kPa | – | 0.6618 mPa·s
278.16 K, 50800 kPa | – | 0.7981 mPa·s
278.16 K, 75800 kPa | – | 0.9456 mPa·s
278.16 K, 100600 kPa | – | 1.105 mPa·s
278.16 K, 125700 kPa | – | 1.28 mPa·s
278.16 K, 150700 kPa | – | 1.469 mPa·s
278.16 K, 175800 kPa | – | 1.675 mPa·s
278.16 K, 200700 kPa | – | 1.895 mPa·s
278.16 K, 225800 kPa | – | 2.137 mPa·s
278.16 K, 250800 kPa | – | 2.395 mPa·s
278.16 K, 275900 kPa | – | 2.679 mPa·s
278.16 K, 300800 kPa | – | 2.992 mPa·s
278.16 K, 325900 kPa | – | 3.323 mPa·s
278.16 K, 350900 kPa | – | 3.683 mPa·s
278.16 K, 380100 kPa | – | 4.144 mPa·s
283.15 K, 101.33 kPa | 754.76 | –
287.93 K, 100 kPa | – | 0.471 mPa·s and 0.4712 mPa·s
287.93 K, 3000 kPa | – | 0.4845 mPa·s
287.93 K, 5400 kPa | – | 0.4955 mPa·s
287.93 K, 8100 kPa | – | 0.5084 mPa·s
287.93 K, 10800 kPa | – | 0.5216 mPa·s
287.93 K, 25900 kPa | – | 0.5923 mPa·s
287.93 K, 50900 kPa | – | 0.7153 mPa·s
287.93 K, 75800 kPa | – | 0.8468 mPa·s
287.93 K, 100800 kPa | – | 0.9885 mPa·s
287.93 K, 125700 kPa | – | 1.143 mPa·s
287.93 K, 150600 kPa | – | 1.308 mPa·s
287.93 K, 175700 kPa | – | 1.488 mPa·s
287.93 K, 200600 kPa | – | 1.681 mPa·s
287.93 K, 225700 kPa | – | 1.893 mPa·s
287.93 K, 250700 kPa | – | 2.121 mPa·s
287.93 K, 275700 kPa | – | 2.361 mPa·s
287.93 K, 300800 kPa | – | 2.623 mPa·s
287.93 K, 325500 kPa | – | 2.901 mPa·s
287.93 K, 349500 kPa | – | 3.196 mPa·s
287.93 K, 376900 kPa | – | 3.563 mPa·s
288.15 K, 101.33 kPa | 749.85 | –
293.15 K, 101.33 kPa | 744.9 | –
298 K, 100 kPa | – | 0.4191 mPa·s and 0.4196 mPa·s
298 K, 3000 kPa | – | 0.4308 mPa·s
298 K, 5300 kPa | – | 0.4404 mPa·s
298 K, 8100 kPa | – | 0.4526 mPa·s
298 K, 10900 kPa | – | 0.4644 mPa·s
298 K, 26000 kPa | – | 0.5288 mPa·s
298 K, 50800 kPa | – | 0.639 mPa·s
298 K, 75800 kPa | – | 0.7572 mPa·s
298 K, 100800 kPa | – | 0.8842 mPa·s
298 K, 125800 kPa | – | 1.021 mPa·s
298 K, 150700 kPa | – | 1.167 mPa·s
298 K, 175700 kPa | – | 1.324 mPa·s
298 K, 200700 kPa | – | 1.495 mPa·s
298 K, 225700 kPa | – | 1.678 mPa·s
298 K, 250700 kPa | – | 1.874 mPa·s
298 K, 275700 kPa | – | 2.085 mPa·s
298 K, 300600 kPa | – | 2.311 mPa·s
298 K, 324900 kPa | – | 2.542 mPa·s
298 K, 349600 kPa | – | 2.793 mPa·s
298 K, 375700 kPa | – | 3.084 mPa·s
298.03 K, 100 kPa | – | 0.419 mPa·s
298.03 K, 5500 kPa | – | 0.441 mPa·s
298.03 K, 7800 kPa | – | 0.4505 mPa·s
298.03 K, 10800 kPa | – | 0.4637 mPa·s
298.03 K, 25900 kPa | – | 0.5276 mPa·s
298.03 K, 50900 kPa | – | 0.6379 mPa·s
298.03 K, 75800 kPa | – | 0.7549 mPa·s
298.03 K, 100800 kPa | – | 0.8807 mPa·s
298.03 K, 125800 kPa | – | 1.016 mPa·s
298.03 K, 150700 kPa | – | 1.163 mPa·s
298.03 K, 175700 kPa | – | 1.322 mPa·s
298.03 K, 200700 kPa | – | 1.491 mPa·s
298.03 K, 225600 kPa | – | 1.673 mPa·s
298.03 K, 250600 kPa | – | 1.871 mPa·s
298.03 K, 275600 kPa | – | 2.081 mPa·s
298.03 K, 300400 kPa | – | 2.305 mPa·s
298.03 K, 325300 kPa | – | 2.545 mPa·s
298.03 K, 350100 kPa | – | 2.8 mPa·s
298.03 K, 378000 kPa | – | 3.112 mPa·s
298.15 K, 101.33 kPa | 739.92 | –

101.33 kPa, Capillary tube (Ostwald / Ubbelohde) method
Settings | viscosity [mPa·s]
278.15 K | 0.523
283.15 K | 0.4932
288.15 K | 0.4657
293.15 K | 0.4405
298.15 K | 0.4173

Reference: the NIST ThermoML archive (doi:10.1021/je034142v)
